Experimental data: publication PMC10041525, “New Dual Inhibitors of Bacterial Topoisomerases with Broad-Spectrum Antibacterial Activity and In Vivo Efficacy against Vancomycin-Intermediate Staphylococcus aureus” (Journal of Medicinal Chemistry, 2023)
Where two headings read alike, the source gives them in different places.

Tests used:
Type in all cases: cell-based
[1] = test system: 100 A. baumannii strains (50 MDR, 50 non-MDR); experiment: MIC broth microdilution at IHMA Europe, panel of 100 strains; settings: Acinetobacter baumannii; for MIC50: read-out: MIC 50
P. aeruginosa ATCC 27853 = experiment: IHMA QC MIC; settings: Pseudomonas aeruginosa, ATCC27853; read-out: MIC (QC, repeated tests)
A. baumannii ATCC 17978 = experiment: IHMA QC MIC; settings: Acinetobacter baumannii, ATCC17978; read-out: MIC (QC, repeated tests)
Procedure: (§1) The panel of Hungarian clinical isolates and controls measured following the same method as detailed above, and albeit measurements were carried out in 384-well microtiter plates (Corning Inc.).

E. coli ATCC 35218 = experiment: IHMA QC MIC; settings: Escherichia coli, ATCC35218; read-out: MIC (QC, repeated tests)
Procedure: as §1

COc1c(N2C[C@@H]3CCCN[C@@H]3C2)c(F)cc2c(=O)c(C(=O)O)cn(C3CC3)c12 [Moxifloxacin, moxifloxacin]
≤ 0.5 µg/mL: MIC ([1]; A. baumannii IHMA 1769393, Lithuania 2018, Non-MDR, read-out: MIC) | MIC ([1]; A. baumannii IHMA 1769910, Israel 2018, Non-MDR, read-out: MIC) | MIC ([1]; A. baumannii IHMA 1790317, Czech Republic 2018, Non-MDR, read-out: MIC) | MIC ([1]; A. baumannii IHMA 1790916, Romania 2018, Non-MDR, read-out: MIC) | MIC ([1]; A. baumannii IHMA 1795669, Tunisia 2018, Non-MDR, read-out: MIC) | MIC ([1]; A. baumannii IHMA 1821468, South Africa 2018, Non-MDR, read-out: MIC) | MIC ([1]; A. baumannii IHMA 1829500, Georgia 2018, Non-MDR, read-out: MIC) | MIC ([1]; A. baumannii IHMA 1830924, United Kingdom 2018, Non-MDR, read-out: MIC) | MIC ([1]; A. baumannii IHMA 1849829, Kuwait 2018, Non-MDR, read-out: MIC) | MIC ([1]; A. baumannii IHMA 1857118, Slovenia 2018, Non-MDR, read-out: MIC) | MIC ([1]; A. baumannii IHMA 1863631, France 2018, Non-MDR, read-out: MIC) | MIC ([1]; A. baumannii IHMA 1870054, United States 2018, Non-MDR, read-out: MIC) | MIC ([1]; A. baumannii IHMA 1884428, Italy 2018, Non-MDR, read-out: MIC) | MIC ([1]; A. baumannii IHMA 1884990, Germany 2018, Non-MDR, read-out: MIC) | MIC ([1]; A. baumannii IHMA 1900538, Turkey 2018, Non-MDR, read-out: MIC) | MIC ([1]; A. baumannii IHMA 1913773, Kenya 2018, Non-MDR, read-out: MIC) | MIC ([1]; A. baumannii IHMA 1926285, Qatar 2018, Non-MDR, read-out: MIC) | MIC ([1]; A. baumannii IHMA 1957343, Portugal 2019, Non-MDR, read-out: MIC) | MIC ([1]; A. baumannii IHMA 1967860, Spain 2019, Non-MDR, read-out: MIC) | MIC ([1]; A. baumannii IHMA 1975075, Israel 2019, Non-MDR, read-out: MIC) | MIC ([1]; A. baumannii IHMA 1977077, Kuwait 2019, Non-MDR, read-out: MIC) | MIC ([1]; A. baumannii IHMA 1986678, Turkey 2019, Non-MDR, read-out: MIC) | MIC ([1]; A. baumannii IHMA 1995161, Czech Republic 2019, Non-MDR, read-out: MIC) | MIC ([1]; A. baumannii IHMA 1997936, Morocco 2019, Non-MDR, read-out: MIC) | MIC ([1]; A. baumannii IHMA 1999178, Belgium 2019, Non-MDR, read-out: MIC) | MIC ([1]; A. baumannii IHMA 2014367, Jordan 2019, Non-MDR, read-out: MIC) | MIC ([1]; A. baumannii IHMA 2014931, South Africa 2019, Non-MDR, read-out: MIC) | MIC ([1]; A. baumannii IHMA 2019315, Romania 2019, Non-MDR, read-out: MIC) | MIC ([1]; A. baumannii IHMA 2031511, Greece 2019, Non-MDR, read-out: MIC) | MIC ([1]; A. baumannii IHMA 2034657, Tunisia 2019, Non-MDR, read-out: MIC) | MIC ([1]; A. baumannii IHMA 2035134, Serbia 2019, Non-MDR, read-out: MIC) | MIC ([1]; A. baumannii IHMA 2058329, Slovenia 2019, Non-MDR, read-out: MIC) | MIC ([1]; A. baumannii IHMA 2065587, France 2019, Non-MDR, read-out: MIC) | MIC ([1]; A. baumannii IHMA 2099294, United Kingdom 2019, Non-MDR, read-out: MIC) | MIC ([1]; A. baumannii IHMA 2129256, Qatar 2019, Non-MDR, read-out: MIC) | MIC ([1]; A. baumannii IHMA 2157614, Australia 2020, Non-MDR, read-out: MIC) | MIC ([1]; A. baumannii IHMA 2178574, Ukraine 2020, Non-MDR, read-out: MIC) | MIC ([1]; A. baumannii IHMA 2180134, Malaysia 2020, Non-MDR, read-out: MIC) | MIC ([1]; A. baumannii IHMA 2183849, Argentina 2020, Non-MDR, read-out: MIC) | MIC ([1]; A. baumannii IHMA 2184382, Japan 2020, Non-MDR, read-out: MIC) | MIC ([1]; A. baumannii IHMA 2193485, Venezuela 2020, Non-MDR, read-out: MIC) | MIC ([1]; A. baumannii IHMA 2206507, Taiwan 2020, Non-MDR, read-out: MIC) | MIC ([1]; A. baumannii IHMA 2212575, Hungary 2020, Non-MDR, read-out: MIC) | MIC ([1]; A. baumannii IHMA 2215307, Hong Kong 2020, Non-MDR, read-out: MIC) | MIC ([1]; A. baumannii IHMA 2223200, Colombia 2020, Non-MDR, read-out: MIC) | MIC ([1]; A. baumannii IHMA 2224303, Panama 2020, Non-MDR, read-out: MIC) | MIC ([1]; A. baumannii IHMA 2233548, Kazakhstan 2020, Non-MDR, read-out: MIC) | MIC ([1]; A. baumannii IHMA 2239052, Thailand 2020, Non-MDR, read-out: MIC) | MIC ([1]; A. baumannii IHMA 2261633, Canada 2020, Non-MDR, read-out: MIC) | MIC ([1]; A. baumannii IHMA 2275237, Chile 2020, Non-MDR, read-out: MIC) | MIC50 ([1]; all isolates n = 100) | MIC ([1]; all isolates n = 100, read-out: MIN (minimum MIC)) | MIC ([1]; non-MDR n = 50, read-out: MAX (maximum MIC)) | MIC50 ([1]; non-MDR n = 50) | MIC90 ([1]; non-MDR n = 50, read-out: MIC 90) | MIC ([1]; non-MDR n = 50, read-out: MIN (minimum MIC)) | MIC (A. baumannii ATCC 17978) | MIC (E. coli ATCC 35218)
2 µg/mL: MIC (P. aeruginosa ATCC 27853)
8 µg/mL: MIC ([1]; A. baumannii IHMA 1769782, Israel 2018, MDR, read-out: MIC) | MIC ([1]; A. baumannii IHMA 1791877, Israel 2018, MDR, read-out: MIC) | MIC ([1]; A. baumannii IHMA 1792961, Jordan 2018, MDR, read-out: MIC) | MIC ([1]; A. baumannii IHMA 1815856, Israel 2018, MDR, read-out: MIC) | MIC ([1]; A. baumannii IHMA 1983151, Greece 2019, MDR, read-out: MIC) | MIC ([1]; A. baumannii IHMA 1987162, Croatia 2019, MDR, read-out: MIC) | MIC ([1]; A. baumannii IHMA 1993615, Turkey 2019, MDR, read-out: MIC) | MIC ([1]; A. baumannii IHMA 2038976, Hungary 2019, MDR, read-out: MIC) | MIC ([1]; A. baumannii IHMA 2180142, Malaysia 2020, MDR, read-out: MIC) | MIC ([1]; A. baumannii IHMA 2181370, Morocco 2020, MDR, read-out: MIC) | MIC ([1]; A. baumannii IHMA 2193375, Venezuela 2020, MDR, read-out: MIC) | MIC ([1]; A. baumannii IHMA 2195460, Italy 2020, MDR, read-out: MIC) | MIC ([1]; A. baumannii IHMA 2196959, South Africa 2020, MDR, read-out: MIC) | MIC ([1]; A. baumannii IHMA 2216586, Taiwan 2020, MDR, read-out: MIC) | MIC ([1]; A. baumannii IHMA 2233099, Guatemala 2020, MDR, read-out: MIC) | MIC ([1]; A. baumannii IHMA 2238964, Thailand 2020, MDR, read-out: MIC) | MIC ([1]; A. baumannii IHMA 2261047, Belgium 2020, MDR, read-out: MIC) | MIC ([1]; A. baumannii IHMA 2274234, South Africa 2020, MDR, read-out: MIC)
4 µg/mL: MIC ([1]; A. baumannii IHMA 2031524, Greece 2019, MDR, read-out: MIC) | MIC ([1]; A. baumannii IHMA 2183729, Argentina 2020, MDR, read-out: MIC) | MIC ([1]; A. baumannii IHMA 2193607, Venezuela 2020, MDR, read-out: MIC) | MIC ([1]; MDR n = 50, read-out: MIN (minimum MIC))
